Values quoted from earlier work as cited in US20240299307A1, “Extended-release compositions comprising atomoxetine” (Tulex Pharmaceuticals, Inc., priority 2021, published 2024).
Where two headings read alike, the source gives them in different places.

- solubility (pH of about 1): about 18 mg/mL
- solubility (pH of about 4.5 (highest solubility)): about 52 mg/mL
- decrease of solubility relative to pH about 4.5 (pH of greater than about 4.5): approximately 10 fold
- decrease of solubility relative to pH about 4.5 (pH of less than 4.5): approximately 3 fold
Compound: CNCC[C@@H](Oc1ccccc1C)c1ccccc1 [ATO]
